Laboratory results: patent US10413505B1, “Pharmaceutical compositions and methods of using the same” (priority 2017, dated 2019)
Where two headings read alike, the source gives them in different places.

Legend:
[1] = Example 2 urinary pharmacokinetics, normal renal function vs severe renal impairment; conditions: for CL renal: human, 160 mg; for 0 to 32 hour urinary recovery (geometric mean) / 0 to 32 hour urinary recovery (mean) / 0 to 32 hour urinary recovery (median): metabolites as cocaine equivalents
Method: For the urine analysis of cocaine, BE, and EME, individual urinary recoveries for each analyte were determined over each collection interval as the product of the urine concentration times the urine volume. The total recoveries were determined as the sum of the recoveries over all the intervals. Total urinary recoveries were also expressed as the percentage of the administered dose, after correction for the molecular weight of each analyte. The renal clearances of cocaine, BE, and EME were determined as the urinary recovery (in μg) divided by the plasma AUC over the same time interval (the longest period for which both plasma and urine measurements were available).
Urine was collected prior to dosing and from 0-2, 2-4, 4-8, 8-12, 12-24, and 24-32 hours after the beginning of dose application. […] Testing methods used were consistent with those used by inVentiv Health Clinical Lab, Inc., Miami, Fla., U.S.A. Urinary pharmacokinetic parameters included total urinary recovery (μg), urinary recovery as a percentage of dose, and CLr.

[2] = Example 3 urinary pharmacokinetics, normal hepatic function vs hepatic impairment; format: in vivo, human; conditions: for Urine Recovery as % of Dose, Geomean / Urine Recovery as % of Dose, Mean: 0-32 h, single intranasal dose; for CL renal: both sexes, other: intranasal (drug-soaked pledgets in the nasal cavity), 160 mg; for CL renal / dose excreted: human, urine; for dose excreted: other: intranasal, read-out: 0-32 h urinary recovery of unchanged drug as percent of the administered dose
Method: Urine was collected prior to dosing and from 0-2, 2-4, 4-8, 8-12, 12-24, and 24-32 hours after beginning of dose application. […] Urinary pharmacokinetic parameters included total urinary recovery (μg), urinary recovery as a percentage of dose, and CLr.

[3] = Example 3 plasma pharmacokinetics, normal hepatic function vs hepatic impairment; conditions: for AUC(0-t): both, human, plasma, inhaled or intranasal, 160 mg, AUC0→t (Geometric mean), single intranasal 160 mg cocaine HCl
[4] = normal renal function, single intranasal 160 mg cocaine HCl
[5] = severe renal impairment, single intranasal 160 mg cocaine HCl
[6] = normal hepatic function, single intranasal 160 mg cocaine HCl
[7] = subjects with hepatic impairment, 32 hours post administration

Q: Which CL renal ([1]; both, urine, inhaled or intranasal, Renal Clearance, CLr (geometric mean), normal renal function, single intranasal 160 mg cocaine HCl) does the source give for `COC(=O)[C@H]1[C@@H](OC(=O)c2ccccc2)C[C@@H]2CC[C@H]1N2C` [Cocaine, cocaine, reference compound] here?
A: Its CL renal is 26.8 mL/min.

Q: And the CL renal ([1]; both, urine, inhaled or intranasal, Renal Clearance, CLr (geometric mean), severe renal impairment, single intranasal 160 mg cocaine HCl)?
A: Its CL renal is 17.3 mL/min.

Q: What about the CL renal ([1]; both, urine, other: intranasal (drug-soaked pledgets in the nasal cavity), renal clearance, range observed, renally impaired patients, 32 hours from administration) of the same compound?
A: The CL renal was 8.8 to 31.9 mL/min.

Q: And the CL renal ([1]; urine and plasma, inhaled or intranasal, CLr (Geometric Least Squares Mean, ANOVA), Impaired renal function (severe), single intranasal 160 mg cocaine HCl)?
A: Its CL renal is 17.3 mL/min.

Q: What about the CL renal ([1]; urine and plasma, inhaled or intranasal, CLr (Geometric Least Squares Mean, ANOVA), Normal renal function, single intranasal 160 mg cocaine HCl) of the same compound?
A: Its CL renal is 26.8 mL/min.

Q: What about the CL renal ([1]; urine and plasma, inhaled or intranasal, Renal Clearance (geometric mean), normal renal function, single intranasal 160 mg cocaine HCl) of the same compound?
A: The CL renal was 26.9 mL/min.

Q: What about the CL renal ([1]; urine and plasma, inhaled or intranasal, Renal Clearance (geometric mean), severe renal impairment, single intranasal 160 mg cocaine HCl) of the same compound?
A: The CL renal was 17.3 mL/min.

Q: What about the CL renal ([1]; urine and plasma, inhaled or intranasal, Renal Clearance (mean), normal renal function, single intranasal 160 mg cocaine HCl) of the same compound?
A: The CL renal was 33.3 mL/min.

Q: And the CL renal ([1]; urine and plasma, inhaled or intranasal, Renal Clearance (mean), severe renal impairment, single intranasal 160 mg cocaine HCl)?
A: The CL renal was 20.4 mL/min.

Q: And the CL renal ([1]; urine and plasma, inhaled or intranasal, Renal Clearance (median), normal renal function, single intranasal 160 mg cocaine HCl)?
A: The CL renal was 33.6 mL/min.

Q: What about the CL renal ([1]; urine and plasma, inhaled or intranasal, Renal Clearance (median), severe renal impairment, single intranasal 160 mg cocaine HCl) of the same compound?
A: Its CL renal is 19.6 mL/min.

Q: What about the CL renal ([1]; urine and plasma, inhaled or intranasal, Renal Clearance, CLr (mean), normal renal function, single intranasal 160 mg cocaine HCl) of the same compound?
A: The CL renal was 33.3 mL/min.

Q: What about the CL renal ([1]; urine and plasma, inhaled or intranasal, Renal Clearance, CLr (mean), severe renal impairment, single intranasal 160 mg cocaine HCl) of the same compound?
A: The CL renal was 20.3 mL/min.

Q: And the CL renal ([1]; urine and plasma, inhaled or intranasal, Renal Clearance, CLr (median), normal renal function, single intranasal 160 mg cocaine HCl)?
A: The CL renal was 33.7 mL/min.

Q: And the CL renal ([1]; urine and plasma, inhaled or intranasal, Renal Clearance, CLr (median), severe renal impairment, single intranasal 160 mg cocaine HCl)?
A: The CL renal was 19.7 mL/min.

Q: And the “0-32 h Urinary Recovery (geometric mean)” value [1, 4]?
A: Its value is 122.8 µg.

Q: And the “0-32 h Urinary Recovery (mean)” value [1, 4]?
A: The value was 164.2 µg.

Q: What about the “0-32 h Urinary Recovery (median)” value [1, 4] of the same compound?
A: Its value is 126.6 µg.

Q: What about the “0 to 32 hour urinary recovery (geometric mean)” value [1, 4] of the same compound?
A: The value was 0.086 % of administered dose.

Q: What about the “0 to 32 hour urinary recovery (mean)” value [1, 4] of the same compound?
A: Its value is 0.115 % of administered dose.

Q: What about the “0 to 32 hour urinary recovery (median)” value [1, 4] of the same compound?
A: The value was 0.089 % of administered dose.

Q: What about the “CLr, percent lower (reduction) than in normal subjects” value ([1]; severe renal impairment vs normal renal function) of the same compound?
A: The value was “approximately 36%”.

Q: And the “CLr Ratio Impaired/Normal” value ([1]; severe renal impairment vs normal renal function, ANOVA)?
A: Its value is 64.33%.

Q: And the “0-32 h Urinary Recovery (geometric mean)” value [1, 5]?
A: The value was 102.7 µg.

Q: And the “0-32 h Urinary Recovery (mean)” value [1, 5]?
A: The value was 138.5 µg.

Q: What about the “0-32 h Urinary Recovery (median)” value [1, 5] of the same compound?
A: The value was 89.8 µg.

Q: And the “0 to 32 hour urinary recovery (geometric mean)” value [1, 5]?
A: The value was 0.072 % of administered dose.

Q: And the “0 to 32 hour urinary recovery (mean)” value [1, 5]?
A: Its value is 0.097 % of administered dose.

Q: What about the “0 to 32 hour urinary recovery (median)” value [1, 5] of the same compound?
A: The value was 0.063 % of administered dose.

Q: What about the “Urine Recovery as % of Dose, Geomean” value ([2]; Impaired hepatic function) of the same compound?
A: Its value is 0.071 % of Dose.

Q: And the “Urine Recovery as % of Dose, Mean” value ([2]; Impaired hepatic function)?
A: Its value is 0.143 % of Dose.

Q: What about the “Urine Recovery as % of Dose, Geomean” value ([2]; Normal hepatic function) of the same compound?
A: The value was 0.057 % of Dose.

Q: And the “Urine Recovery as % of Dose, Mean” value ([2]; Normal hepatic function)?
A: The value was 0.072 % of Dose.

Q: What about the CL renal ([2]; Impaired hepatic function, Table 26, read-out: CLr Geomean (converted)) of the same compound?
A: Its CL renal is 7.8 mL/min.

Q: And the CL renal ([2]; Impaired hepatic function, Table 26, read-out: CLr Mean (converted))?
A: Its CL renal is 16.6 mL/min.

Q: And the CL renal ([2]; Normal hepatic function, Table 26, read-out: CLr Geomean (converted))?
A: Its CL renal is 19.5 mL/min.

Q: What about the CL renal ([2]; Normal hepatic function, Table 26, read-out: CLr Mean (converted)) of the same compound?
A: The CL renal was 29.8 mL/min.

Q: What about the CL renal ([2]; hepatically impaired patients, 32 hours from administration, read-out: renal clearance, range observed) of the same compound?
A: The CL renal was 1.27 to 32 mL/min.

Q: And the CL renal ([2]; subjects with hepatic impairment, Table 30, read-out: Renal Clearance, geometric mean (converted))?
A: The CL renal was 7.79 mL/min.

Q: What about the CL renal ([2]; subjects with hepatic impairment, Table 30, read-out: Renal Clearance, mean (converted)) of the same compound?
A: Its CL renal is 16.6 mL/min.

Q: What about the CL renal ([2]; subjects with hepatic impairment, Table 30, read-out: Renal Clearance, median (converted)) of the same compound?
A: The CL renal was 15.6 mL/min.

Q: What about the CL renal ([2]; subjects with hepatic impairment, read-out: Renal Clearance, geometric mean (converted)) of the same compound?
A: The CL renal was 7.79 mL/min.

Q: What about the CL renal ([2]; subjects with hepatic impairment, read-out: Renal Clearance, mean (converted)) of the same compound?
A: Its CL renal is 16.6 mL/min.

Q: What about the CL renal ([2]; subjects with hepatic impairment, read-out: Renal Clearance, median (converted)) of the same compound?
A: Its CL renal is 15.6 mL/min.

Q: What about the CL renal ([2]; subjects with normal hepatic function, Table 29, read-out: Renal Clearance, geometric mean (converted)) of the same compound?
A: The CL renal was 19.5 mL/min.

Q: And the CL renal ([2]; subjects with normal hepatic function, Table 29, read-out: Renal Clearance, mean (converted))?
A: Its CL renal is 29.8 mL/min.

Q: And the CL renal ([2]; subjects with normal hepatic function, Table 29, read-out: Renal Clearance, median (converted))?
A: The CL renal was 22 mL/min.

Q: And the CL renal ([2]; subjects with normal hepatic function, read-out: Renal Clearance, geometric mean (converted))?
A: The CL renal was 19.5 mL/min.

Q: What about the CL renal ([2]; subjects with normal hepatic function, read-out: Renal Clearance, mean (converted)) of the same compound?
A: Its CL renal is 29.8 mL/min.

Q: And the CL renal ([2]; subjects with normal hepatic function, read-out: Renal Clearance, median (converted))?
A: The CL renal was 22 mL/min.

Q: And the dose excreted ([2]; hepatic impairment)?
A: Its dose excreted is 0.071%.

Q: What about the dose excreted ([2]; normal hepatic function) of the same compound?
A: The dose excreted was 0.057%.

Q: What about the “0-32 h Urinary Recovery (geometric mean)” value [2, 6] of the same compound?
A: The value was 81.5 µg.

Q: And the “0-32 h Urinary Recovery (mean)” value [2, 6]?
A: Its value is 102.25 µg.

Q: What about the “0-32 h Urinary Recovery (median)” value [2, 6] of the same compound?
A: The value was 108.1 µg.

Q: And the “0-32 h Urinary Recovery (geometric mean)” value [2, 7]?
A: Its value is 101.4 µg.

Q: What about the “0-32 h Urinary Recovery (mean)” value [2, 7] of the same compound?
A: Its value is 204 µg.

Q: And the “0-32 h Urinary Recovery (median)” value [2, 7]?
A: Its value is 193.5 µg.

Q: What about the “AUClast Ratio Grade B/Normal” value ([3]; ANOVA) of the same compound?
A: The value was 284.54%.

Q: What about the “AUClast Ratio Grade C/Normal” value ([3]; ANOVA) of the same compound?
A: The value was 179.88%.

Q: What about the “CL/F Ratio Grade B/Normal (GMR)” value ([3]; ANOVA) of the same compound?
A: The value was 36.25%.

Q: What about the “CL/F Ratio Grade C/Normal (GMR)” value ([3]; ANOVA) of the same compound?
A: Its value is 55.28%.

Q: And the “Cmax Ratio Grade C/Normal” value ([3]; ANOVA)?
A: The value was 68.13%.

Q: And the “Cmax Ratio Grade B/Normal” value ([3]; ANOVA, excludes one outlier subject)?
A: The value was 104.89%.

Q: And the “AUClast, times higher than normal subjects” value ([3]; Grade B hepatic impairment)?
A: The value was 2.8 times.

Q: What about the “CL/F (Geometric Least Squares Mean, ANOVA)” value ([3]; Grade B hepatic impairment) of the same compound?
A: Its value is 629 L/h.

Q: What about the “CL/F, percent reduction vs normal” value ([3]; Grade B hepatic impairment) of the same compound?
A: Its value is 64%.

Q: And the “geometric mean Cmax, percent higher than normal” value ([3]; Grade B hepatic impairment, outlier excluded)?
A: Its value is 5%.

Q: And the “geometric mean Cmax, percent higher than normal” value ([3]; Grade B hepatic impairment, outlier included)?
A: The value was 56%.

Q: What about the “AUClast, times higher than normal subjects” value ([3]; Grade C hepatic impairment) of the same compound?
A: The value was 1.8 times.

Q: What about the “CL/F (Geometric Least Squares Mean, ANOVA)” value ([3]; Grade C hepatic impairment) of the same compound?
A: Its value is 959 L/h.

Q: And the “CL/F, percent reduction vs normal” value ([3]; Grade C hepatic impairment)?
A: The value was 45%.

Q: What about the “geometric mean Cmax, percent lower than normal” value ([3]; Grade C hepatic impairment) of the same compound?
A: The value was 32%.

Q: And the “CL/F (Geometric Least Squares Mean, ANOVA)” value ([3]; Normal hepatic function)?
A: The value was 1735 L/h.

Q: What about the “geometric mean Cmax, percent lower than normal” value ([3]; all hepatically impaired individuals, outlier excluded) of the same compound?
A: Its value is 7%.

Q: And the “geometric mean Cmax, percent higher than normal” value ([3]; all hepatically impaired individuals, outlier included)?
A: Its value is 27%.

Q: What about the AUC(0-t) ([3]; hepatic impairment) of the same compound?
A: The AUC(0-t) was 189 ng·h/mL.

Q: What about the AUC(0-t) ([3]; normal hepatic function) of the same compound?
A: Its AUC(0-t) is 79.2 ng·h/mL.
